pIC50: −log10 of the molar value. Read-outs that look alike come from different tables or passages of the source.
How the values were obtained:
NFκB = assay: TNF-α-induced NFκB luciferase reporter assay in stably-transfected human embryonic kidney cells 293; format: cell-based; conditions: for pIC50: human embryonic kidney cells 293 NFκB reporter, TNF-α 2 ng/mL, 6 h, read-out: IC50, inhibition of TNF-α-induced NFκB activity
Experimental: Activation of NFκB may promote cell proliferation or prevent cell death through apoptosis. Inhibition of NFκB signaling has potential application for the treatment or prevention of cancer; some inhibitors are known. […] […].
We employed human embryonic kidney cells 293 Panomic (Fremont, CA, USA) for monitoring changes occurring along the NFκB pathway. Stable constructed cells were seeded into sterile 96-well plate at 20 × 10^3 cells per well. Cells maintained in Dulbecco’s modified Eagle’s medium (DMEM) Invitrogen Co. (Carlsbad, CA, USA), supplemented with 10% FBS, 100 units/mL penicillin, 100 µg/mL streptomycin, 2 mM L-glutamine. After 48 h incubation, the medium was replaced and cells were treated with various concentration of test substances dissolved in PBS. TNF-α (Human, Recombinant, E. coli, Calbiochem, Gibbstown, NJ, USA) was used as an activator at a concentration of 2 ng/mL (0.14 nM). The plate was incubated for 6 h. Spent medium was discarded and the cells were washed once with PBS. Cells were lysed using 50 µL (for 96-well plate) Reporter Lysis Buffer from Promega, by incubating for 5 min on a shaker, and stored at −80 °C. The luciferase assay was performed using the Luc assay system from Promega (Madison, WI, USA). The gene product, luciferase enzyme, reacts with luciferase substrate, emitting light which was detected using a luminometer (LUMIstar Galaxy BMG). Data for NFκB constructs are expressed as IC50 values (i.e., concentration required to inhibit TNF-activated NFκB activity by 50%).

P388 cells = test system: P388 cells; set-up: method as in PMID 2753825; conditions: cited from earlier work
L1210 cells = test system: L1210 cells; set-up: method as in PMID 2753825; conditions: cited from earlier work
5-α-reductase [1] = test system: 5-α-reductase; set-up: method as in PMID 2503481; conditions: derived from rat prostate; cited from earlier work
5-α-reductase [2] = test system: 5-α-reductase; set-up: method as in PMID 2503481; conditions: derived from dog prostate; cited from earlier work
5-α-reductase [3] = test system: 5-α-reductase; set-up: method as in PMID 2503481; conditions: derived from human prostate; cited from earlier work

SMILES	pIC50 (NFκB)	enhancement of NFκB inhibitory activity by bromination at position-2 (NFκB; phenazine 1 compared with lavanducyanin)	growth inhibition of P388 cells in culture (P388 cells)	growth inhibition of L1210 cells in culture (L1210 cells)	inhibition of 5-α-reductase (5-α-reductase [1])	inhibition of 5-α-reductase (5-α-reductase [2])	inhibition of 5-α-reductase (5-α-reductase [3])
CC1=C(Cn2c3ccc(Br)c(=O)c-3nc3ccccc32)CCC(C)(C)C1 [Phenazine 1]	5.39	approximately 4 fold	–	–	–	–	–
CC(C)=CCn1c2ccc(Br)c(=O)c-2nc2ccccc21 [Phenazine 2]	4.62	–	–	–	–	–	–
CC1=C(Cn2c3cccc(=O)c-3nc3ccccc32)CCC(C)(C)C1 [Lavanducyanin 3, lavanducyanin]	4.79	–	strongly inhibits the growth	strongly inhibits the growth	competitively inhibits	competitively inhibits	competitively inhibits

— publication PMC3297008, “Novel Marine Phenazines as Potential Cancer Chemopreventive and Anti-Inflammatory Agents” (Marine Drugs, 2012)
